From ChEMBL document CHEMBL1201862, “PubChem BioAssay data set” (2004) come the findings set out here.

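All cell lines were grown in 96-well plates and treated with compound for 48 hours. Abbreviation: GI50, concentration required for 50% inhibition of growth.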 Active and inactive are the calls of the source. No stated cut-off is given here; in the data, active = GI50 up to about 1.1 µM and inactive = higher.

Among the test systems are 786-0; CCRF-CEM; IGROV-1; SW-620; A549; K562; NCI-H460; LOX IMVI; SF-268; SN12C; HCT-15; UACC-62; A498; SK-MEL-5.
What all share (assay): inhibition of tumour cell growth, NCI panel, 48 h

With `CCCCc1c2c(nc3c1CC/C(=C\c1ccc([N+](=O)[O-])cc1)C3=O)CCCC2`, the GI50 with 786-0 was 1.43 µM (inactive); in the assay with CCRF-CEM, 1.46 µM (inactive); in the assay with IGROV-1 it was 1.8 µM (inactive); in the assay with SW-620, 1.69 µM (inactive); in the assay with A549 it was 4.41 µM (inactive); in the assay with K562 it was 2.17 µM (inactive). The GI50 in the assay with NCI-H460 was 1.57 µM (inactive); in the assay with LOX IMVI, 1.6 µM (inactive); with SF-268 it was 1.98 µM (inactive); in the assay on SN12C, 1.88 µM (inactive); in the assay with HCT-15, 0.312 µM; in the assay on UACC-62 it was 1.61 µM (inactive).

`Cc1cc(N(CCC#N)CCC#N)ccc1/C=C(\N=[N+]=[N-])C(=O)NC(=O)COc1ccccc1`: the GI50 with 786-0, in the assay on CCRF-CEM, in the assay with A498, with IGROV-1, in the assay with SW-620 and with A549 was > 100 µM (inactive) each time. For the same molecule, the GI50 in the assay with K562, with NCI-H460, with LOX IMVI, in the assay on SK-MEL-5, in the assay with SF-268 and in the assay on SN12C was > 100 µM (inactive) each time. Also, the results for the GI50 in the assay on HCT-15 and with UACC-62 were > 100 µM and > 100 µM (inactive), respectively.

With `O=C(NC1CCCCC1)c1c(O)[nH]c(=S)[nH]c1=O`, the GI50 is > 100 µM (inactive) with 786-0; > 100 µM (inactive) in the assay with CCRF-CEM; > 100 µM (inactive) with A498; > 100 µM (inactive) in the assay with IGROV-1; > 100 µM (inactive) in the assay on SW-620; 52.4 µM (inactive) with A549. Besides, the GI50 in the assay with NCI-H460 is 57 µM (inactive); in the assay on LOX IMVI it was > 100 µM (inactive); in the assay on SK-MEL-5, > 100 µM (inactive); with SF-268, > 100 µM (inactive); with SN12C it was > 100 µM (inactive); in the assay on HCT-15, > 100 µM. Besides, in the assay on UACC-62, the GI50 was > 100 µM (inactive).

On to `C/C(=C\CBr)CCC(Br)C(C)(C)Cl` (configuration not stated), for which the GI50 in the assay on 786-0, with IGROV-1, with SW-620, in the assay on A549, in the assay with K562 and in the assay on NCI-H460 was > 100 µM (inactive) throughout. The GI50 in the assay with LOX IMVI is > 100 µM (inactive); with SK-MEL-5, > 100 µM (inactive); in the assay with SF-268 it was > 100 µM (inactive); with SN12C, > 100 µM (inactive); with HCT-15 it was > 100 µM; in the assay on UACC-62 it was > 100 µM (inactive).

Regarding `O=C1NC2(CCCCC2)C2CCCCC=C12` (configuration not stated), the GI50 in the assay on 786-0, in the assay on CCRF-CEM, with A498, in the assay on IGROV-1, with SW-620 and in the assay with A549 was > 100 µM (inactive) in each case. Moreover, the GI50 in the assay with K562, with NCI-H460, with LOX IMVI, with SK-MEL-5, with SF-268 and with SN12C was > 100 µM (inactive) each time. Besides, the GI50 is > 100 µM with HCT-15 and > 100 µM (inactive) in the assay with UACC-62.

Consider `CCOC(=O)C(=O)Nc1c(C)cccc1C(C)(C)C`, for which the GI50 in the assay with 786-0, with IGROV-1, in the assay on SW-620, with K562, in the assay with NCI-H460 and in the assay with LOX IMVI was > 100 µM (inactive) in each case. In addition, the GI50 is > 100 µM (inactive) in the assay with SK-MEL-5; > 100 µM (inactive) with SF-268; > 100 µM (inactive) in the assay on SN12C; > 100 µM in the assay with HCT-15; > 100 µM (inactive) in the assay on UACC-62.

As to `Cc1ccc(NC(=O)C(=O)C(C(=O)c2ccc3ccccc3c2)C2OC(=O)c3ccccc32)c(C)c1` (configuration not stated), the GI50 in the assay with 786-0 was 6.93 µM (inactive); in the assay with CCRF-CEM, 8.55 µM (inactive); with A498, 6.1 µM (inactive); with IGROV-1 it was 10.9 µM (inactive); in the assay on SW-620, 5.71 µM (inactive); with A549, 18 µM (inactive). In addition, the GI50 in the assay with K562 was 10.4 µM (inactive); in the assay with NCI-H460 it was 5.57 µM (inactive); in the assay with LOX IMVI, 10.6 µM (inactive); in the assay with SK-MEL-5, 11.1 µM (inactive); in the assay on SF-268 it was 3.68 µM (inactive); in the assay on SN12C, 15.5 µM (inactive). Further, the GI50 is 14.3 µM in the assay with HCT-15 and 4.54 µM (inactive) in the assay on UACC-62.

Take `COC(=O)/C=C(/C(=O)OC)C1(C)c2cc(C(=O)OC)c(C(=O)OC)c(N)c2C(=N)N1c1ccccc1` (configuration not stated): the GI50 in the assay on 786-0 was 28.6 µM (inactive); in the assay with CCRF-CEM, 15.5 µM (inactive); with A498, 31.1 µM (inactive); in the assay with IGROV-1, 27.5 µM (inactive); in the assay with A549 it was 42 µM (inactive); in the assay with K562 it was 18.7 µM (inactive). Besides, the GI50 in the assay with NCI-H460 was 39.5 µM (inactive); in the assay on LOX IMVI, 18.2 µM (inactive); in the assay with SK-MEL-5, > 10 µM (inactive); in the assay with SF-268, 19.3 µM (inactive); in the assay with SN12C, 19.6 µM (inactive); with HCT-15, 31.8 µM. The GI50 with UACC-62 was 24.6 µM (inactive).

Consider `CC(C)(C)c1cc(C#N)c2c(c1)C(=O)OC2(c1ccccc1)c1ccccc1C#N` (configuration not stated), for which the GI50 in the assay with 786-0, in the assay on CCRF-CEM, with A498, in the assay on IGROV-1, with SW-620 and with A549 was > 100 µM (inactive) throughout. Also, the GI50 was 45.4 µM (inactive) with K562; > 100 µM (inactive) in the assay with NCI-H460; > 100 µM (inactive) with LOX IMVI; > 100 µM (inactive) with SF-268; > 100 µM (inactive) in the assay with SN12C; 29.5 µM with HCT-15. Moreover, the GI50 in the assay on UACC-62 was > 100 µM (inactive).

With `CC(C)(C)OC(=O)NC1CCC[C@H]1O` (some centres not stated), the GI50 in the assay with 786-0, with CCRF-CEM, in the assay with A498, in the assay with SW-620, in the assay on A549 and in the assay with K562 was > 100 µM (inactive) each time. For the same molecule, the GI50 in the assay with NCI-H460, with LOX IMVI, in the assay on SK-MEL-5, in the assay with SF-268, in the assay with SN12C and in the assay with UACC-62 was > 100 µM (inactive) each time.

In the case of `O=C(CSC(=S)N1CCCCC1)Nc1nc2c(s1)CCCC2`, the GI50 was 48.3 µM (inactive) in the assay on 786-0; 29.4 µM (inactive) in the assay with CCRF-CEM; > 100 µM (inactive) in the assay with A498; > 100 µM (inactive) in the assay with IGROV-1; 40.7 µM (inactive) in the assay on SW-620; 43.6 µM (inactive) in the assay with A549. For the same molecule, the GI50 in the assay with NCI-H460 is 15.1 µM (inactive); in the assay with LOX IMVI it was 13.8 µM (inactive); in the assay on SK-MEL-5, 18.5 µM (inactive); with SF-268 it was 20.7 µM (inactive); with SN12C it was 31.3 µM (inactive); in the assay with HCT-15, 8.73 µM.

Turning to `COc1ccc(C(c2c(O)c3ccccc3n(C)c2=O)c2c(O)c3ccccc3n(C)c2=O)cc1`, the GI50 is 28.1 µM (inactive) in the assay on 786-0; 71.8 µM (inactive) in the assay with IGROV-1; 57.4 µM (inactive) in the assay on SW-620; 37.5 µM (inactive) in the assay on A549; 27.9 µM (inactive) with K562; > 100 µM (inactive) in the assay with NCI-H460. Further, the GI50 in the assay on LOX IMVI is 37.2 µM (inactive); in the assay with SK-MEL-5, 20.2 µM (inactive); with SF-268, 34.1 µM (inactive); in the assay with SN12C, 66.5 µM (inactive); in the assay on HCT-15, > 10 µM; with UACC-62, 13.2 µM (inactive).

For `COC(=O)CC1CCN(C#N)CC1CC[N+](=O)[O-]` (configuration not stated), the GI50 in the assay on 786-0, in the assay on CCRF-CEM, in the assay on A498, with IGROV-1, in the assay on SW-620 and in the assay with A549 was > 100 µM (inactive) each time. Also, the GI50 is > 100 µM (inactive) in the assay with K562; > 100 µM (inactive) in the assay on NCI-H460; > 100 µM (inactive) with SK-MEL-5; > 100 µM (inactive) in the assay with SF-268; > 100 µM (inactive) in the assay with SN12C; > 100 µM in the assay on HCT-15. Further, the GI50 in the assay with UACC-62 was > 100 µM (inactive).

For the molecule `CCOC(=O)c1cccc(=O)c(C(=O)OCC)c1`, the GI50 is 63.2 µM (inactive) in the assay with 786-0; 27.2 µM (inactive) in the assay with CCRF-CEM; > 100 µM (inactive) with A498; 74 µM (inactive) in the assay on IGROV-1; 50.2 µM (inactive) in the assay with SW-620; 46.9 µM (inactive) in the assay on A549. Further, the GI50 in the assay on K562 was 36.1 µM (inactive); with NCI-H460 it was 80 µM (inactive); in the assay on SK-MEL-5 it was 47.8 µM (inactive); in the assay with HCT-15, 40.3 µM; in the assay on UACC-62, 34 µM (inactive).

Turning to `CCCCn1c(-c2ccccc2)cs/c1=N\NC(=O)Cn1c(C)nc2ccccc21`, the GI50 with 786-0 is > 100 µM (inactive); in the assay on CCRF-CEM, 17.9 µM (inactive); with A498, > 100 µM (inactive); with IGROV-1, > 100 µM (inactive); in the assay on SW-620 it was > 100 µM (inactive); in the assay with A549 it was 81.1 µM (inactive). Moreover, the GI50 is 14.5 µM (inactive) with K562; 76.7 µM (inactive) with NCI-H460; 32.6 µM (inactive) in the assay on LOX IMVI; 20.4 µM (inactive) in the assay on SK-MEL-5; 19.8 µM (inactive) in the assay on SN12C; 97.9 µM in the assay with HCT-15. For the same molecule, the GI50 with UACC-62 is 58.6 µM (inactive).

For the molecule `C=C(C)C12CC3CC(/C(=N/O)C(C1)/C3=N\O)[C@@]2(C)O` (some centres not stated), the GI50 with 786-0, with CCRF-CEM, in the assay with IGROV-1, in the assay on SW-620, in the assay with A549 and in the assay with K562 was > 100 µM (inactive) throughout. Besides, the GI50 is > 100 µM (inactive) in the assay on NCI-H460; > 100 µM (inactive) in the assay on LOX IMVI; > 100 µM (inactive) in the assay with SK-MEL-5; > 100 µM (inactive) in the assay on SF-268; > 100 µM (inactive) in the assay on SN12C; > 100 µM with HCT-15. Besides, the GI50 in the assay with UACC-62 is > 100 µM (inactive).
